Results as given in PubChem BioAssay AID248 (DTP/NCI, 2004).
“And” between values parts separate entries of the source, which are not always exact repeats. Equal entries are not always repeated. Inconclusive results and toxic doses are left out.

System: L1210 leukemia ip in BDF1 mice, survival T/C
Experiment: NCI In Vivo Anticancer Drug Screen. Data for tumor model L1210 Leukemia (intraperitoneal) in B6D2F1 (BDF1) mice
Settings: endpoint: mean survival time, higher = longer survival
How it was run: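 Survival endpoint. Drug-treated group vs vehicle group, expressed as T divided by C. Tumor passaged by transplantation.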

Compound: CC1CCC(NC(=O)N(CCCl)N=O)CC1 (stereo not given)
- T/C (dose: 0.1 mg/kg/injection, schedule: Q01DX001 (ip), vehicle: clinical formulation): 211 % of control
- T/C (dose: 0.2 mg/kg/injection, schedule: Q01DX001 (ip), vehicle: clinical formulation): 119 % of control
- T/C (dose: 0.4 mg/kg/injection, schedule: Q01DX001 (ip), vehicle: clinical formulation): 223 % of control
- T/C (dose: 0.45 mg/kg/injection, schedule: Q01DX009 (ip), vehicle: saline with Tween-80): 99 % of control and 103 % of control
- T/C (dose: 0.9 mg/kg/injection, schedule: Q01DX009 (ip), vehicle: saline with Tween-80): 106 % of control and 118 % of control
- T/C (dose: 1.0 mg/kg/injection, schedule: Q01DX001 (ip), vehicle: other): 112 % of control
- T/C (dose: 1.0 mg/kg/injection, schedule: Q04DX002 (ip), vehicle: saline with Tween-80): 95 % of control and 100 % of control
- T/C (dose: 2.0 mg/kg/injection, schedule: Q01DX001 (ip), vehicle: other): 118 % of control
- T/C (dose: 2.0 mg/kg/injection, schedule: Q01DX009 (ip), vehicle: saline): 98 % of control
- T/C (dose: 2.0 mg/kg/injection, schedule: Q04DX002 (ip), vehicle: saline with Tween-80): 101 % of control and 120 % of control
- T/C (dose: 2.5 mg/kg/injection, schedule: Q01DX Z (ip), vehicle: Klucel (hydroxypropylcellulose) (HPC)): 115 % of control
- T/C (dose: 3.1 mg/kg/injection, schedule: Q07DX003 (ip), vehicle: Klucel (hydroxypropylcellulose) (HPC)): 109 % of control
- T/C (dose: 4.0 mg/kg/injection, schedule: Q01DX009 (ip), vehicle: saline): 104 % of control
- T/C (dose: 4.0 mg/kg/injection, schedule: Q04DX002 (ip), vehicle: saline with Tween-80): 103 % of control and 107 % of control
- T/C (dose: 5.0 mg/kg/injection, schedule: Q01DX Z (ip), vehicle: Klucel (hydroxypropylcellulose) (HPC)): 205 % of control
- T/C (dose: 6.0 mg/kg/injection, schedule: Q01DX001 (ip), vehicle: other): 154 % of control
- T/C (dose: 6.2 mg/kg/injection, schedule: Q07DX003 (ip), vehicle: Klucel (hydroxypropylcellulose) (HPC)): 100 % of control
- T/C (dose: 6.7 mg/kg/injection, schedule: Q04DX004 (ip), vehicle: saline with Tween-80): 206 % of control
- T/C (dose: 8.0 mg/kg/injection, schedule: Q01DX001 (ip), vehicle: other): 165 % of control
- T/C (dose: 8.0 mg/kg/injection, schedule: Q01DX009 (ip), vehicle: saline): 117 % of control
- T/C (dose: 10.0 mg/kg/injection, schedule: Q01DX001 (ip), vehicle: Klucel (hydroxypropylcellulose) (HPC)): 445 % of control
- T/C (dose: 10.0 mg/kg/injection, schedule: Q01DX001 (ip), vehicle: clinical formulation): 280 % of control
- T/C (dose: 10.0 mg/kg/injection, schedule: Q01DX001 (ip), vehicle: saline): 328 % of control
- T/C (dose: 10.0 mg/kg/injection, schedule: Q01DX001 (iv), vehicle: clinical formulation): 186 % of control and 205 % of control and 245 % of control
- T/C (dose: 10.0 mg/kg/injection, schedule: Q01DX Z (ip), vehicle: Klucel (hydroxypropylcellulose) (HPC)): 240 % of control and 282 % of control
- T/C (dose: 10.0 mg/kg/injection, schedule: Q04DX004 (ip), vehicle: saline with Tween-80): 273 % of control
- T/C (dose: 10.7 mg/kg/injection, schedule: Q01DX001 (ip), vehicle: saline with Tween-80): 181 % of control
- T/C (dose: 12.0 mg/kg/injection, schedule: Q01DX001 (ip), vehicle: other): 213 % of control
- T/C (dose: 12.5 mg/kg/injection, schedule: Q01DX001 (ip), vehicle: other): 241 % of control
- T/C (dose: 12.5 mg/kg/injection, schedule: Q01DX001 (ip), vehicle: saline): 172 % of control
- T/C (dose: 12.5 mg/kg/injection, schedule: Q07DX003 (ip), vehicle: Klucel (hydroxypropylcellulose) (HPC)): 294 % of control
- T/C (dose: 13.0 mg/kg/injection, schedule: Q01DX001 (ip), vehicle: other): 196 % of control
- T/C (dose: 15.0 mg/kg/injection, schedule: Q01DX001 (ip), vehicle: clinical formulation): 218 % of control
- T/C (dose: 15.0 mg/kg/injection, schedule: Q01DX001 (ip), vehicle: saline): 238 % of control
- T/C (dose: 15.0 mg/kg/injection, schedule: Q01DX001 (iv), vehicle: clinical formulation): 326 % of control
- T/C (dose: 15.0 mg/kg/injection, schedule: Q01DX001 (iv), vehicle: saline): 154 % of control
- T/C (dose: 15.0 mg/kg/injection, schedule: Q04DX004 (ip), vehicle: saline with Tween-80): 319 % of control
- T/C (dose: 16.0 mg/kg/injection, schedule: Q01DX001 (ip), vehicle: other): 321 % of control
- T/C (dose: 18.0 mg/kg/injection, schedule: Q01DX001 (ip), vehicle: other): 265 % of control
- T/C (dose: 20.0 mg/kg/injection, schedule: Q01DX001 (ip), vehicle: Klucel (hydroxypropylcellulose) (HPC)): 442 % of control
